Assay results taken from patent US20240132513A1, “BENZAZEPINE DERIVATIVES, COMPOSITIONS, AND METHODS FOR TREATING COGNITIVE IMPAIRMENT” (AGENEBIO, INC., priority 2022, published 2024).
Where two headings read alike, the source gives them in different places.

Biological target: α5β3γ2 GABAA R (Homo sapiens, UniProt P18507+P31644)
Test: Binding activity on GABAA R: inhibition of [3H]Ro15-1788 binding, α5 containing receptor
Procedure: Tissue culture and Membrane Preparation: The binding was performed on Ltk cells stably expressing GABAA R: […], α2β3γ2, α3β3γ2 and α5β3γ2 (provided by Merck Co., NJ, USA). Cells were seeded in 100 mm culture plates in DMEM/F12 medium containing 10% serum and antibiotics in 5% CO2 and allowed to grow for 1-2 days. GABAAR expression was then induced by dexamethasone as follows: 0.5 μM for 1 day for α5 containing and 2 μM for 3 days for α1, α2 and α3 containing GABAARs. After induction, cells were collected by scraping into Dulbecco's Phosphate buffered saline (DPBS, pH 7.4, Invitrogen, Carlsbad, CA, USA) and centrifuged at 150×g for 10 min. The pellet was washed twice by re-suspension and centrifugation. The cell pellets from at least 5 different preps were combined, suspended in the binding assay buffer (50 mM KH2PO4; 1 mM EDTA; 0.2 M KCl, pH 7.4) and membranes prepared by sonication (3-5 times, 30 sec) using Branson Sonifier 150 (G. Heinmann, Germany). Protein content was determined using BCA assay (Bio-Rad Labs, Reinach, Switzerland) with Bovine Serum Albumin (Sigma Aldrich, St. Louis, MO, USA) as the standard. Aliquots were prepared and stored at −20° C. for further use in binding assays.
Ligand Binding: Saturation binding curves were obtained by incubating membranes with increasing concentrations (0.01-8 nM) of [^3H]Rol5-1788 (Flumazepil, 75-85 Ci/mmol, PerkinElmer, MA, USA), with nonspecific binding measured in the presence of 10 μM diazepam.
All binding assays were performed for 1 h at 4° C. in assay buffer. The total assay volume was 0.5 ml containing 0.2 mg/ml protein for α5 and 0.4 mg/ml for α1, α2, and α3 containing GABAAR membranes. Incubations were terminated by filtration through GF/B filters using a 24-Cell Harvestor (Brandel, Gaithersburg, MD, USA) followed by 3 washes with ice-cold assay buffer. Filters were transferred to scintillation vials, 5 ml scintillation liquid added, vortex-mixed and kept in dark. Next day, radioactivity was obtained using a scintillation counter (Beckman Coulter, Brea, CA, USA). All assays were performed in triplicate.
Data Analyses: Saturation and inhibition curves were obtained using GraphPad Prism software (GraphPad Software, Inc., CA, USA).

[1] = ranges of the column heads, [3H]Ro15-1788, Ltk cell membranes

Chain of α5β3γ2 GABAA R (P31644 32-462): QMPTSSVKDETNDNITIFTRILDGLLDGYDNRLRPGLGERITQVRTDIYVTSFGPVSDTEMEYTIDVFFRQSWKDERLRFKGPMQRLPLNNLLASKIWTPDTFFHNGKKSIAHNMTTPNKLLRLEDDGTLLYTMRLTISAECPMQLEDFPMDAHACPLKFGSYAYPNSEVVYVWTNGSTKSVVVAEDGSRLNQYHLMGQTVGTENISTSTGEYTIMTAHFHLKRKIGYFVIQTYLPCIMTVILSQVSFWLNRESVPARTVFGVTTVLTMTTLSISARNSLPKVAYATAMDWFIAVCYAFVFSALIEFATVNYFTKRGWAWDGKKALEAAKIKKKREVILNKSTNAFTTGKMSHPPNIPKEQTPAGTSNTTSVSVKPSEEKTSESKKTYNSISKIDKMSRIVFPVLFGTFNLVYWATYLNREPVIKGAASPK
Chain of α5β3γ2 GABAA R (P28472 26-473 partner): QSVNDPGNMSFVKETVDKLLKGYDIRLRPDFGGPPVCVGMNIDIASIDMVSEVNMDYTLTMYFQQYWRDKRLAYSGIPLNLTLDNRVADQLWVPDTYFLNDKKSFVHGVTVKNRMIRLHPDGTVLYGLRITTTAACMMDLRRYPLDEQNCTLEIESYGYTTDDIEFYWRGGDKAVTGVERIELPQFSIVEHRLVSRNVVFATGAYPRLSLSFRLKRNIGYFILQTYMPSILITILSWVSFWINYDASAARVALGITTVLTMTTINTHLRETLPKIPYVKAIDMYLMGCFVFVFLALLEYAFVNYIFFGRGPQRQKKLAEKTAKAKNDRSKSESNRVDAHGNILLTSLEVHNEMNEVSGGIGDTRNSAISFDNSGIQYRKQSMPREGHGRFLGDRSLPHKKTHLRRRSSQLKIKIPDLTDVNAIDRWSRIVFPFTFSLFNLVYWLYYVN
Chain of α5β3γ2 GABAA R (P18507 40-475): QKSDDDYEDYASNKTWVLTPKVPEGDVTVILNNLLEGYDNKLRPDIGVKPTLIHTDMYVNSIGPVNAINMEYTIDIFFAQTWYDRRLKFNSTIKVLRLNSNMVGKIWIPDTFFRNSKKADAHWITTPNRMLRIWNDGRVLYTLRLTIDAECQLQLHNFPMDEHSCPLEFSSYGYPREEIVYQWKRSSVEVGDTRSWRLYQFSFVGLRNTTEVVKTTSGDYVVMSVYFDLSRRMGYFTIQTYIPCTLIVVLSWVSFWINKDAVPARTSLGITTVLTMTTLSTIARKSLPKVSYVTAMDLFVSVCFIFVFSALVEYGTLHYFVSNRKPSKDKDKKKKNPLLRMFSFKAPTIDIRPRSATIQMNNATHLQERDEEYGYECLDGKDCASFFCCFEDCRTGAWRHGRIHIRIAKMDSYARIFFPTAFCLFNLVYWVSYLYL

Row | Structure (SMILES) | Ki [nM] | Ki [1] [nM]
1 | COc1ccc2c(c1)-c1nn(C)cc1Cc1c(-c3noc(CC(C)(C)OC)n3)ncn1-2 [Compound 344] | 100 to 1000 | –
2 | CC1(c2nc(-c3ncn4c3Cc3cn(CC5CCCO5)nc3-c3cc(Cl)ccc3-4)no2)CCOCC1 (stereo not shown) [Compound 365] | < 100 | –
3 | COc1ccc2c(c1)-c1[nH]ncc1Cc1c(-c3cn(C)nc3C(F)(F)F)ncn1-2 [Compound 81] | – | > 1000
4 | COc1ccc2c(c1)-c1[nH]ncc1Cc1c(-c3cn(C)cn3)ncn1-2 [Compound 80] | – | > 1000
5 | COc1cccc(Cn2cc(-c3ncn4c3Cc3cn(C5CCOC5)nc3-c3cc(Cl)ccc3-4)cn2)n1 (stereo not shown) [Compound 338] | < 100 | –
6 | Cn1cc2c(n1)-c1cc(Cl)ccc1-n1cnc(-c3noc(Cn4ccnc4)n3)c1C2 [Compound 373] | < 100 | –
7 | CC(C)c1noc(-c2ncn3c2Cc2cnoc2-c2cc(Cl)ccc2-3)n1 [Compound 59] | – | > 1000
8 | Cn1cc2c(n1)-c1cc(Cl)ccc1-n1cnc(-c3nc(COC4CCOCC4)co3)c1C2 [Compound 346] | – | < 100
9 | COCc1nnc(-c2ncn3c2Cc2cn(C)nc2-c2cc(OC)ccc2-3)o1 [Compound 326] | < 100 | –
10 | CN(C)Cc1noc(-c2ncn3c2Cc2cn(C)nc2-c2cc(Cl)ccc2-3)n1 [Compound 240] | < 100 | –
11 | FC(F)(F)c1noc(-c2ncn3c2Cc2cn(CC4CCCO4)nc2-c2cc(Cl)ccc2-3)n1 (stereo not shown) [Compound 227] | < 100 | –
12 | Cn1ncc2c1-c1cc(Cl)ccc1-n1cnc(C#CC(C)(C)C)c1C2 [Compound 102] | < 100 | –
13 | Cn1cc2c(n1)-c1cc(Cl)ccc1-n1cnc(-c3noc(Cn4cccn4)n3)c1C2 [Compound 372] | < 100 | –
14 | CCOC(=O)c1cnc2n1Cc1nncn1-c1cc(Cl)ccc1-2 [Compound 56] | < 100 | –
15 | COCCOCc1coc(-c2ncn3c2Cc2cn(C)nc2-c2cc(Cl)ccc2-3)n1 [Compound 278] | < 100 | –
16 | COc1ccc2c(c1)-c1nn(C)cc1Cc1c(-c3noc(C4(OC)CCOC4)n3)ncn1-2 (stereo not shown) [Compound 354] | < 100 | –
17 | Clc1ccc2c(c1)-c1nn(CC3CCCO3)cc1Cc1c(-c3cnn(Cc4ccccn4)c3)ncn1-2 (stereo not shown) [Compound 320] | < 100 | –
18 | C[C@H]1COC(c2ncn3c2Cc2cnn(Cc4ccccc4)c2-c2cc(Cl)ccc2-3)=N1 [Compound 13] | – | > 1000
19 | CC(C)c1noc(-c2ncn3c2Cc2cn(C4CCOC4)nc2-c2cc(Cl)ccc2-3)n1 (stereo not shown) [Compound 199] | < 100 | –
20 | Clc1ccc2c(c1)-c1nn(C3CCOC3)cc1Cc1c(-c3cnn(CC4CCOCC4)c3)ncn1-2 (stereo not shown) [Compound 321] | < 100 | –
21 | COCc1noc(-c2ncn3c2Cc2cn(CC4CCOC4)nc2-c2cc(OC)ccc2-3)n1 (stereo not shown) [Compound 299] | – | < 100
22 | CC(=O)N(C)Cc1coc(-c2ncn3c2Cc2cn(C)nc2-c2cc(Cl)ccc2-3)n1 [Compound 358] | < 100 | –
23 | Clc1ccc2c(c1)-c1[nH]ncc1Cc1c(-c3nc(C4CCC4)no3)ncn1-2 [Compound 107] | < 100 | –

Row | Structure (SMILES) | Ki [nM] | Ki [1] [nM]
24 | CC(C)c1noc(-c2ncn3c2Cc2cnn(C)c2-c2cc(Cl)ccc2-3)n1 [Compound 4] | 100 to 1000 | –
25 | COc1ccc2c(c1)-c1oncc1Cc1c(-c3nc(C(C)C)no3)ncn1-2 [Compound 41] | – | > 1000
26 | COc1ccc2c(c1)-c1[nH]ncc1Cc1c(-c3noc(C(C)C)n3)ncn1-2 [Compound 54] | < 100 | –
27 | COc1ccc(C#Cc2ncn3c2Cc2cn[nH]c2-c2cc(OC)ccc2-3)nc1 [Compound 53] | < 100 | –
28 | COc1ccc2c(c1)-c1nn(C)cc1Cc1c(-c3nc(CN4CCCC4=O)co3)ncn1-2 [Compound 379] | < 100 | –
29 | CCn1cc2c(n1)-c1cc(OC)ccc1-n1cnc(-c3noc(C4(OC)CC4)n3)c1C2 [Compound 340] | – | < 100
30 | COc1ccc2c(c1)-c1nn(Cc3ccccc3)cc1Cc1c(-c3nc(C)no3)ncn1-2 [Compound 16] | < 100 | –
31 | Clc1ccc2c(c1)-c1nn(C3CCOC3)cc1Cc1c(-c3cnn(Cc4ccccc4)c3)ncn1-2 (stereo not shown) [Compound 274] | – | < 100
32 | COc1ccc2c(c1)-c1c(cnn1C)Cc1c(-c3nc(C(C)C)no3)ncn1-2 [Compound 47] | 100 to 1000 | –
33 | COc1ccc2c(c1)-c1c(cnn1CC1CCOC1)Cc1c(-c3noc(C(C)(C)OC)n3)ncn1-2 (stereo not shown) [Compound 375] | < 100 | –
34 | COc1ccc2c(c1)-c1nn(CCOC(F)(F)F)cc1Cc1c(-c3noc(C4(OC)CC4)n3)ncn1-2 [Compound 330] | < 100 | –
35 | COc1ccc2c(c1)-c1c(cnn1C)Cc1c(-c3noc(C(C)(C)OC)n3)ncn1-2 [Compound 186] | 100 to 1000 | –
36 | COc1ccc2c(c1)-c1nn(CC3CCCO3)cc1Cc1c(-c3noc(C4(OC)CC4)n3)ncn1-2 (stereo not shown) [Compound 323] | < 100 | –
37 | COc1ccc2c(c1)-c1[nH]ncc1Cc1c(-c3cnn(-c4ccccc4)c3)ncn1-2 [Compound 70] | 100 to 1000 | –
38 | Clc1ccc2c(c1)-c1[nH]ncc1Cc1c(-c3cnn(-c4ccccc4)c3)ncn1-2 [Compound 60] | 100 to 1000 | –
39 | COc1ccc2c(c1)-c1oncc1Cc1c(-c3nc(CC(C)C)no3)ncn1-2 [Compound 67] | – | > 1000
40 | Clc1ccc2c(c1)-c1nn(CC3CCCO3)cc1Cc1c(-c3cnn(CC4CCOCC4)c3)ncn1-2 (stereo not shown) [Compound 319] | < 100 | –
41 | COc1ccc2c(c1)-c1[nH]ncc1Cc1c(C3=CCCC3)ncn1-2 [Compound 74] | – | 100 to 1000
42 | COc1ccc2c(c1)-c1nn(C)cc1Cc1c(-c3noc(CCN4CCCC4=O)n3)ncn1-2 [Compound 369] | < 100 | –
43 | COc1ccc2c(c1)-c1c(cnn1C)Cc1c(-c3noc(C4(OC)CC4)n3)ncn1-2 [Compound 204] | < 100 | –
44 | CC(=O)N(C)Cc1noc(-c2ncn3c2Cc2cn(C)nc2-c2cc(Cl)ccc2-3)n1 [Compound 386] | – | < 100
45 | COc1cccc(Cn2cc(-c3ncn4c3Cc3cn(C)nc3-c3cc(Cl)ccc3-4)cn2)n1 [Compound 336] | < 100 | –
46 | COCCc1nc(-c2ncn3c2Cc2cn(C)nc2-c2cc(OC)ccc2-3)no1 [Compound 342] | – | < 100

Row | Structure (SMILES) | Ki [nM] | Ki [1] [nM]
47 | Cn1cc2c(n1)-c1cc(Cl)ccc1-n1cnc(-c3noc(Cn4cccc4)n3)c1C2 [Compound 371] | < 100 | –
48 | CC(C)OCc1nc(-c2ncn3c2Cc2cn(CC4CCCO4)nc2-c2cc(Cl)ccc2-3)no1 (stereo not shown) [Compound 307] | < 100 | –
49 | CCn1cc2c(n1)-c1cc(Cl)ccc1-n1cnc(-c3noc(C(C)(C)OC)n3)c1C2 [Compound 196] | < 100 | –
50 | Cc1noc(-c2cnc3n2CC(=O)N(C)c2cc(Cl)ccc2-3)n1 [Compound 32] | – | > 1000
51 | COc1ccc2c(c1)-c1nn(C)cc1Cc1c(-c3nc(C4CCOC4)co3)ncn1-2 (stereo not shown) [Compound 262] | – | > 1000
52 | COc1ccc2c(c1)-c1c(cnn1CC1CCOC1)Cc1c(-c3nc(C(C)C)no3)ncn1-2 (stereo not shown) [Compound 246] | – | < 100
53 | COc1ccc2c(c1)-c1nn(CCOC(F)(F)F)cc1Cc1c(-c3noc(C(C)(C)OC)n3)ncn1-2 [Compound 343] | < 100 | –
54 | COc1ccc2c(c1)-c1nn(C)cc1Cc1c(-c3nc(CN(C)C(C)=O)co3)ncn1-2 [Compound 378] | 100 to 1000 | –
55 | Cn1cc2c(n1)-c1cc(Cl)ccc1-n1cnc(-c3cnn(C4CCCO4)c3)c1C2 (stereo not shown) [Compound 221] | 100 to 1000 | –
56 | CCOC(=O)c1cnc2n1CC(=O)N(Cc1ccc(OC)cc1OC)c1cc(Cl)ccc1-2 [Compound 25] | – | > 1000
57 | COc1ccc2c(c1)-c1c(cnn1CC1CC1)Cc1c(-c3nc(C(F)(F)F)no3)ncn1-2 [Compound 117] | < 100 | –
58 | COc1ccc2c(c1)-c1oncc1Cc1c(C3=N[C@@H](c4ccc(C(F)(F)F)cc4)CO3)ncn1-2 [Compound 50] | – | > 1000
59 | COc1ccc2c(c1)-c1nn(C)cc1Cc1c(-c3noc(C4(O)CC4)n3)ncn1-2 [Compound 363] | – | < 100
60 | COc1ccc2c(c1)-c1nn(C)cc1Cc1c(-c3noc(C(C)(C)O)n3)ncn1-2 [Compound 388] | < 100 | –
61 | COc1ccc2c(c1)-c1oncc1Cc1c(-c3nc(C)no3)ncn1-2 [Compound 42] | – | > 1000
62 | COc1ccc2c(c1)-c1nn(C)cc1Cc1c(-c3nc(CN(C(C)=O)C(C)C)co3)ncn1-2 [Compound 381] | – | < 100
63 | COc1ccc2c(c1)-c1oncc1Cc1c(C3=N[C@@H](c4ccccc4)CO3)ncn1-2 [Compound 48] | – | > 1000
64 | CCn1cc2c(n1)-c1cc(OC)ccc1-n1cnc(-c3nc(C(C)(C)OC)no3)c1C2 [Compound 234] | < 100 | –
65 | COc1ccc2c(c1)-c1nn(CC3CCOC3)cc1Cc1c(-c3nc(C(F)(F)F)no3)ncn1-2 (stereo not shown) [Compound 265] | < 100 | –
66 | COc1ccc2c(c1)-c1nn(C)cc1Cc1c(-c3noc(C4(OC)CCCC4)n3)ncn1-2 [Compound 355] | < 100 | –
67 | COCCn1cc2c(n1)-c1cc(OC)ccc1-n1cnc(-c3noc(C(C)(C)OC)n3)c1C2 [Compound 311] | < 100 | –
